Marks after values point to notes of the source that are not given here.
Tested on: Botrytis cinerea
Assay: Example A: in vivo preventive test on Botrytis cinerea (grey mould)
Settings: 100 ppm of active ingredient; gherkin plants, preventive spray; evaluated 4 to 5 days after inoculation
Procedure: (§1) The young plants of gherkin are treated by spraying the active ingredient prepared as described above. Control plants are treated only with an aqueous solution of acetone/Dimethyl sulfoxide/Tween®. After 24 hours, the plants are contaminated by spraying the leaves with an aqueous suspension of Botrytis cinerea spores.

Structure (SMILES) | Eff. % [%]
CC(Oc1ccc(Cl)cc1)C(O)(Cc1cccnc1Cl)Cn1cncn1 (stereo not drawn) [Example I-16] | 87

Same assay, conditions: 500 ppm of active ingredient; gherkin plants, preventive spray; evaluated 4 to 5 days after inoculation

Structure (SMILES) | Eff. % [%]
OC(Cc1ccc(Cl)cn1)(Cn1cncn1)C1(Cl)CC1 (racemic) [Example I-67] | 99
OC(COc1ccc(F)cc1)(Cc1ccncc1Cl)Cn1cncn1 (racemic) [Example I-79] | 99
OC(Cc1cc(Cl)cnc1Cl)(Cn1cncn1)C1(Cl)CC1 (racemic) [Example I-83] | 100
OC(Cc1cc(F)ncc1Cl)(Cn1cncn1)C1(Cl)CC1 (racemic) [Example I-89] | 100
CC(C)(CCl)C(O)(Cc1ccncc1Cl)Cn1cncn1 (racemic) [Example I-90] | 100
CC(C)(Oc1ccc(F)cc1)C(O)(Cc1ccncc1Cl)Cn1cncn1 (racemic) [Example I-91] | 95
OC(Cc1ncccc1Cl)(Cn1cncn1)C1(Cl)CC1 (stereo not drawn) [Example I-2] | 94
OC(Cc1ccncn1)(Cn1cncn1)C1(Cl)CC1 (stereo not drawn) [Example I-50] | 100

Tested on: Pyrenophora teres
Assay: Example C: in vivo preventive test on Pyrenophora teres (net blotch on barley)
Settings: 100 ppm of active ingredient; barley plants, preventive spray; evaluated 14 days after inoculation
Procedure: as §1, with “barley” for “gherkin”, “Pyrenophora teres” for “Botrytis cinerea”

Structure (SMILES) | Eff. % [%]
OC(Cc1ccc2ccccc2n1)(Cn1cncn1)C1(Cl)CC1 (stereo not drawn) [Example I-1] | 83

Same assay, conditions: 500 ppm of active ingredient; barley plants, preventive spray; evaluated 14 days after inoculation

Structure (SMILES) | Eff. % [%]
OC(Cc1ccc(Cl)cn1)(Cn1cncn1)C1(Cl)CC1 (racemic) [Example I-67] | 86
OC(CCc1ccccc1Cl)(Cc1ccncc1Cl)Cn1cncn1 (racemic) [Example I-68] | 71
OC(Cc1cc(Cl)cnc1Cl)(Cn1cncn1)C1(Cl)CC1 (racemic) [Example I-83] | 88
OC(Cc1cc(F)ncc1Cl)(Cn1cncn1)C1(Cl)CC1 (racemic) [Example I-89] | 100
OC(Cc1ccncn1)(Cn1cncn1)C1(Cl)CC1 (stereo not drawn) [Example I-50] | 79
OC(Cc1cncc(Oc2ccc(Cl)cc2)n1)(Cn1cncn1)C1(Cl)CC1 (stereo not drawn) [Example I-56] | 88
OC(Cc1ncnc(Cl)c1Cl)(Cn1cncn1)C1(Cl)CC1 (stereo not drawn) [Example I-57] | 88

Tested on: Fusarium nivale (var. majus)
Assay: Example J: Fusarium nivale (var. majus)-test (wheat)/preventive
Assay type: in vivo
Settings: 500 ppm of active ingredient, preventive, evaluated 5 days after inoculation
Procedure: Solvent: 49 parts by weight of N,N-dimethylacetamide
Emulsifier: 1 part by weight of alkylaryl polyglycol ether
To produce a suitable preparation of active compound, 1 part by weight of active compound or active compound combination is mixed with the stated amounts of solvent and emulsifier, and the concentrate is diluted with water to the desired concentration.
To test for preventive activity, young plants are sprayed with the preparation of active compound or active compound combination at the stated rate of application.
After the spray coating has been dried, the plants are slightly injured by using a sandblast and afterwards they are sprayed with a conidia suspension of Fusarium nivale (var. majus).
The plants are placed in the greenhouse under a translucent incubation cabinet at a temperature of approximately 10° C. and a relative atmospheric humidity of approximately 100%.
The test is evaluated 5 days after the inoculation. 0% means an efficacy which corresponds to that of the untreated control, while an efficacy of 100% means that no disease is observed.

Structure (SMILES) | Eff. % [%]
OC(Cc1ncnc(Cl)c1Cl)(Cn1cncn1)C1(Cl)CC1 (stereo not drawn) [Example I-57] | 71

Tested on: Puccinia recondita
Assay: Example B: in vivo preventive test on Puccinia recondita (brown rust on wheat)
Settings: 100 ppm of active ingredient; wheat plants, preventive spray; evaluated 11 days after inoculation
Procedure: as §1, with “wheat” for “gherkin”, “Puccinia recondita” for “Botrytis cinerea”

Structure (SMILES) | Eff. % [%]
CC(Oc1ccc(Cl)cc1)C(O)(Cc1cccnc1Cl)Cn1cncn1 (stereo not drawn) [Example I-16] | 75
OC(Cc1cc(Cc2ccc(Cl)c(Cl)n2)cc(Cl)n1)(Cn1cncn1)C1(Cl)CC1 (stereo not drawn) [Example I-32] | 75

Same assay, conditions: 500 ppm of active ingredient; wheat plants, preventive spray; evaluated 11 days after inoculation

Structure (SMILES) | Eff. % [%]
OC(Cc1ccccc1F)(Cc1cc(F)ncc1Cl)Cn1cncn1 (racemic) [Example I-64] | 83
OC(Cc1ccc(Cl)cn1)(Cn1cncn1)C1(Cl)CC1 (racemic) [Example I-67] | 98
OC(CCc1ccccc1Cl)(Cc1ccncc1Cl)Cn1cncn1 (racemic) [Example I-68] | 94
OC(COc1ccc(F)cc1)(Cc1ccncc1Cl)Cn1cncn1 (racemic) [Example I-79] | 98
OC(Cc1cc(Cl)cnc1Cl)(Cn1cncn1)C1(Cl)CC1 (racemic) [Example I-83] | 100
OC(Cc1cc(F)ncc1Cl)(Cn1cncn1)C1(Cl)CC1 (racemic) [Example I-89] | 100
CC(C)(Oc1ccc(F)cc1)C(O)(Cc1ccncc1Cl)Cn1cncn1 (racemic) [Example I-91] | 89
OC(Cc1ncccc1Cl)(Cn1cncn1)C1(Cl)CC1 (stereo not drawn) [Example I-2] | 94
OC(Cc1ccncn1)(Cn1cncn1)C1(Cl)CC1 (stereo not drawn) [Example I-50] | 94
OC(Cc1cncc(Oc2ccc(Cl)cc2)n1)(Cn1cncn1)C1(Cl)CC1 (stereo not drawn) [Example I-56] | 86
OC(Cc1ncnc(Cl)c1Cl)(Cn1cncn1)C1(Cl)CC1 (stereo not drawn) [Example I-57] | 86

Tested on: Sphaerotheca fuliginea
Assay: Example E: in vivo preventive test on Sphaerotheca fuliginea (powdery mildew on cucurbits)
Settings: 100 ppm of active ingredient; gherkin plants, preventive spray; evaluated 15 days after inoculation
Procedure: as §1, with “Sphaerotheca fuliginea” for “Botrytis cinerea”

Structure (SMILES) | Eff. % [%]
CC(Oc1ccc(Cl)cc1)C(O)(Cc1cccnc1Cl)Cn1cncn1 (stereo not drawn) [Example I-16] | 100

Same assay, conditions: 500 ppm of active ingredient; gherkin plants, preventive spray; evaluated 15 days after inoculation

Structure (SMILES) | Eff. % [%]
OC(Cc1ccccc1F)(Cc1cc(F)ncc1Cl)Cn1cncn1 (racemic) [Example I-64] | 100
OC(Cc1ccc(Cl)cn1)(Cn1cncn1)C1(Cl)CC1 (racemic) [Example I-67] | 98
OC(CCc1ccccc1Cl)(Cc1ccncc1Cl)Cn1cncn1 (racemic) [Example I-68] | 100
OC(COc1ccc(F)cc1)(Cc1ccncc1Cl)Cn1cncn1 (racemic) [Example I-79] | 100
OC(Cc1cc(Cl)cnc1Cl)(Cn1cncn1)C1(Cl)CC1 (racemic) [Example I-83] | 100
OC(Cc1cc(F)ncc1Cl)(Cn1cncn1)C1(Cl)CC1 (racemic) [Example I-89] | 100
CC(C)(CCl)C(O)(Cc1ccncc1Cl)Cn1cncn1 (racemic) [Example I-90] | 100
CC(C)(Oc1ccc(F)cc1)C(O)(Cc1ccncc1Cl)Cn1cncn1 (racemic) [Example I-91] | 98
OC(Cc1ncccc1Cl)(Cn1cncn1)C1(Cl)CC1 (stereo not drawn) [Example I-2] | 95
OC(Cc1ccncn1)(Cn1cncn1)C1(Cl)CC1 (stereo not drawn) [Example I-50] | 100
OC(Cc1cncc(Oc2ccc(Cl)cc2)n1)(Cn1cncn1)C1(Cl)CC1 (stereo not drawn) [Example I-56] | 100
OC(Cc1ncnc(Cl)c1Cl)(Cn1cncn1)C1(Cl)CC1 (stereo not drawn) [Example I-57] | 95

Tested on: Blumeria graminis f. sp. hordei
Assay: Example G: Blumeria test (barley)/preventive
Assay type: in vivo
Settings: 500 ppm of active ingredient, preventive, evaluated 7 days after inoculation
Procedure: Solvent: 49 parts by weight of N,N-dimethylacetamide Emulsifier: 1 part by weight of alkylaryl polyglycol ether To produce a suitable preparation of active compound, 1 part by weight of active compound or active compound combination is mixed with the stated amounts of solvent and emulsifier, and the concentrate is diluted with water to the desired concentration. To test for preventive activity, young plants are sprayed with the preparation of active compound or active compound combination at the stated rate of application. After the spray coating has been dried, the plants are dusted with spores of Blumeria graminis f. sp. hordei.

Structure (SMILES) | Eff. % [%]
OC(Cc1ncnc(Cl)c1Cl)(Cn1cncn1)C1(Cl)CC1 (stereo not drawn) [Example I-57] | 100

Tested on: Uromyces appendiculatus
Assay: Example F: in vivo preventive test on Uromyces appendiculatus (bean rust)
Settings: 100 ppm of active ingredient; bean plants, preventive spray; evaluated 11 days after inoculation
Procedure: as §1, with “bean” for “gherkin”, “Uromyces appendiculatus” for “Botrytis cinerea”

Structure (SMILES) | Eff. % [%]
OC(Cc1ccc2ccccc2n1)(Cn1cncn1)C1(Cl)CC1 (stereo not drawn) [Example I-1] | 80
CC(Oc1ccc(Cl)cc1)C(O)(Cc1cccnc1Cl)Cn1cncn1 (stereo not drawn) [Example I-16] | 91

Same assay, conditions: 500 ppm of active ingredient; bean plants, preventive spray; evaluated 11 days after inoculation

Structure (SMILES) | Eff. % [%]
OC(Cc1ccccc1F)(Cc1cc(F)ncc1Cl)Cn1cncn1 (racemic) [Example I-64] | 94
OC(Cc1ccc(Cl)cn1)(Cn1cncn1)C1(Cl)CC1 (racemic) [Example I-67] | 100
OC(CCc1ccccc1Cl)(Cc1ccncc1Cl)Cn1cncn1 (racemic) [Example I-68] | 100
OC(COc1ccc(F)cc1)(Cc1ccncc1Cl)Cn1cncn1 (racemic) [Example I-79] | 100
OC(Cc1cc(Cl)cnc1Cl)(Cn1cncn1)C1(Cl)CC1 (racemic) [Example I-83] | 100
OC(Cc1cc(F)ncc1Cl)(Cn1cncn1)C1(Cl)CC1 (racemic) [Example I-89] | 100
CC(C)(Oc1ccc(F)cc1)C(O)(Cc1ccncc1Cl)Cn1cncn1 (racemic) [Example I-91] | 97
OC(Cc1ncccc1Cl)(Cn1cncn1)C1(Cl)CC1 (stereo not drawn) [Example I-2] | 100
OC(Cc1ccncn1)(Cn1cncn1)C1(Cl)CC1 (stereo not drawn) [Example I-50] | 100
OC(Cc1cncc(Oc2ccc(Cl)cc2)n1)(Cn1cncn1)C1(Cl)CC1 (stereo not drawn) [Example I-56] | 96
OC(Cc1ncnc(Cl)c1Cl)(Cn1cncn1)C1(Cl)CC1 (stereo not drawn) [Example I-57] | 96

Tested on: Septoria tritici
Assay: Example D: in vivo preventive test on Septoria tritici (leaf spot on wheat)
Settings: 100 ppm of active ingredient; wheat plants, preventive spray; evaluated 24 days after inoculation
Procedure: as §1, with “wheat” for “gherkin”, “Septoria tritici” for “Botrytis cinerea”

Structure (SMILES) | Eff. % [%]
CC(Oc1ccc(Cl)cc1)C(O)(Cc1cccnc1Cl)Cn1cncn1 (stereo not drawn) [Example I-16] | 98

Same assay, conditions: 500 ppm of active ingredient; wheat plants, preventive spray; evaluated 24 days after inoculation

Structure (SMILES) | Eff. % [%]
OC(Cc1ccccc1F)(Cc1cc(F)ncc1Cl)Cn1cncn1 (racemic) [Example I-64] | 97
OC(Cc1ccc(Cl)cn1)(Cn1cncn1)C1(Cl)CC1 (racemic) [Example I-67] | 100
OC(CCc1ccccc1Cl)(Cc1ccncc1Cl)Cn1cncn1 (racemic) [Example I-68] | 100
OC(COc1ccc(F)cc1)(Cc1ccncc1Cl)Cn1cncn1 (racemic) [Example I-79] | 100
OC(Cc1cc(Cl)cnc1Cl)(Cn1cncn1)C1(Cl)CC1 (racemic) [Example I-83] | 100
OC(Cc1cc(F)ncc1Cl)(Cn1cncn1)C1(Cl)CC1 (racemic) [Example I-89] | 100
CC(C)(CCl)C(O)(Cc1ccncc1Cl)Cn1cncn1 (racemic) [Example I-90] | 78
CC(C)(Oc1ccc(F)cc1)C(O)(Cc1ccncc1Cl)Cn1cncn1 (racemic) [Example I-91] | 100
OC(Cc1ncccc1Cl)(Cn1cncn1)C1(Cl)CC1 (stereo not drawn) [Example I-2] | 100
OC(Cc1ccncn1)(Cn1cncn1)C1(Cl)CC1 (stereo not drawn) [Example I-50] | 100
OC(Cc1cncc(Oc2ccc(Cl)cc2)n1)(Cn1cncn1)C1(Cl)CC1 (stereo not drawn) [Example I-56] | 92
OC(Cc1ncnc(Cl)c1Cl)(Cn1cncn1)C1(Cl)CC1 (stereo not drawn) [Example I-57] | 92

Tested on: not given
Assay: not given
Settings: pH 2.7

Structure (SMILES) | LogP
OC(Cc1ccccc1F)(Cc1cc(F)ncc1Cl)Cn1cncn1 (racemic) [Example I-64] | 2.46^[a]
OC(Cc1ccc(Cl)cn1)(Cn1cncn1)C1(Cl)CC1 (racemic) [Example I-67] | 2.23^[a]
OC(CCc1ccccc1Cl)(Cc1ccncc1Cl)Cn1cncn1 (racemic) [Example I-68] | 2.29^[a]
OC(COc1ccc(F)cc1)(Cc1ccncc1Cl)Cn1cncn1 (racemic) [Example I-79] | 1.86^[a]
OC(Cc1cc(Cl)cnc1Cl)(Cn1cncn1)C1(Cl)CC1 (racemic) [Example I-83] | 2.53^[a]
OC(Cc1cc(F)ncc1Cl)(Cn1cncn1)C1(Cl)CC1 (racemic) [Example I-89] | 2.30^[a]
CC(C)(CCl)C(O)(Cc1ccncc1Cl)Cn1cncn1 (racemic) [Example I-90] | 1.76^[a]
CC(C)(Oc1ccc(F)cc1)C(O)(Cc1ccncc1Cl)Cn1cncn1 (racemic) [Example I-91] | 2.48^[a]
OC(Cc1ccc2ccccc2n1)(Cn1cncn1)C1(Cl)CC1 (stereo not drawn) [Example I-1] | 1.64^[a]
OC(Cc1ncccc1Cl)(Cn1cncn1)C1(Cl)CC1 (stereo not drawn) [Example I-2] | 2.28^[a]
OC(Cc1cc(Cc2ccc(Cl)c(Cl)n2)cc(Cl)n1)(Cn1cncn1)C1(Cl)CC1 (stereo not drawn) [Example I-32] | 3.58^[a]
OC(Cc1ccncn1)(Cn1cncn1)C1(Cl)CC1 (stereo not drawn) [Example I-50] | 1.10^[a]
OC(Cc1cncc(Oc2ccc(Cl)cc2)n1)(Cn1cncn1)C1(Cl)CC1 (stereo not drawn) [Example I-56] | 2.88^[a]
OC(Cc1ncnc(Cl)c1Cl)(Cn1cncn1)C1(Cl)CC1 (stereo not drawn) [Example I-57] | 2.28^[a]

Same assay, conditions: pH 7.8

Structure (SMILES) | LogP
CC(C)(CCl)C(O)(Cc1ccncc1Cl)Cn1cncn1 (racemic) [Example I-90] | 1.96^[b];
CC(C)(Oc1ccc(F)cc1)C(O)(Cc1ccncc1Cl)Cn1cncn1 (racemic) [Example I-91] | 2.60^[b];

— US9822099B2, “Triazole derivatives” (priority 2013, dated 2017)
